Experiment [1] is described as follows: DPPH radical scavenging assay (antioxidant activity). The following applies: mean ± S.D. of n = 3; for EC50: MES-NaOH buffer pH 6.0, 15 min in the dark; for Antioxidant Trolox-eq (TE): trolox-equivalent (mol-trolox/mol-sample) = slope of sample / slope of trolox. Here is the method: The antioxidant activity was assessed by employing the 2,2-diphenyl-1-picrylhydrazyl (DPPH) radical scavenging assay, according to the previously published method. In total, 100 μL of each sample (1000–10 μg/mL in 50%EtOH/ H2O ) or trolox (160–0 μM in 50% EtOH/ H2O ), and 50 μL of 2-(N-morpholino)ethanesulfonic acid (MES)-NaOH buffer (200 mM, pH = 6.0), and 50 μL of an 800 μM DPPH diluted in 99.5% EtOH were mixed in 96-well plates. Following shaking the microplate for 15 min in the dark, the absorbance was recorded at 520 nm using a microplate reader (Bio-Rad, Model 680). Effective percentages (%) were calculated as follows: Effective percentages (%) = 1−As/Ab ×100 where As is the absorbance of the sample and Ab is the absorbance of the blank (without samples, 50% EtOH/ H2O solution was used instead).
The trolox-equivalent (sample-mol/trolox-mol) was calculated as follows: Trolox−equivalent (mol−trolox/mol−sample) = Ss/St where Ss is the slope of the sample and St is the slope of trolox.

Experiment [2] concerns the target rat α-glucosidase. Kind of experiment: α-glucosidase inhibitory activity assay (FUJIFILM kit, maltose substrate, glucose measured by mutarotase-GOD method). Type of experiment: biochemical. The note with it: for IC50: rat α-glucosidase, 18.5 mM maltose, maleic anhydride buffer pH 6.0, 37 °C, 30 min, mean ± S.D. of n = 2. Here is the method:
The α-glucosidase inhibitory activity of all samples was assayed utilizing a commercially available FUJIFILM α-glucosidase inhibitory activity assay kit. In total, 25 μL of each sample (25–2000 μg/mL in H2O ) or acarbose (0.5–8 μg/mL in H2O ), 50 μL of 18.5 mM maltose diluted in maleic anhydride buffer (100 mM, pH = 6.0), and 25 μL of the rat α-glucosidase solution were incubated in a micro-tube at 37 °C for 30 min. Subsequently, 400 μL of purified water was added to the solution and the reaction mixture was boiled for 3 min to deactivate α-glucosidase. The generated glucose was measured by LabAssay™ glucose (mutarotase-GOD method). In total, 100 μL of the reaction solution and 150 μL of the coloring solution were incubated in 96-well plates at 37 °C for 10 min, and the absorbance was recorded at 505 nm using a microplate reader (Bio-Rad, Model 680). The inhibition percentage was calculated using the following Equation: Inhibition percentage (%) = 1−As−Ab/Ac ×100 where As is the absorbance of the analyzed sample, Ab is the absorbance of the blank (immediate deactivation), and Ac is the absorbance of the control ([…]). Acarbose was used as the positive control.

A word on the EC50: it is the concentration at which the effect is half-maximal. The term IC50 denotes the concentration needed to halve the response being measured.

Consider “2,3,4,6-tetrakis-O-(3′,4′,5′-Trihydroxybenzoyl)-D-glucitol [Compound 54]”, for which, in experiment [1], the EC50 came to 6.61 ± 0.68 µM and the “Antioxidant Trolox-eq (TE)” value was found to be 6.77 ± 0.63. In experiment [2], this molecule registered an IC50 of 2.56 ± 0.1 µM. Moreover, the “α-glucosidase inhibitory activity, fold higher than acertannin (37)” value in experiment [2] (relative to acertannin (37)) is “more than 13 fold”.

In the case of `C[C@H]1O[C@H](O[C@H]2[C@H](O)[C@@H](O)[C@@H](O[C@H]3[C@H](O)[C@@H](O)C(O)O[C@@H]3CO)O[C@@H]2CO)[C@H](O)[C@@H](O)[C@@H]1N[C@H]1C=C(CO)[C@@H](O)[C@H](O)[C@H]1O` (stereo partly shown) [Acarbose, reference compound], in experiment [2], the midpoint of inhibition, the IC50, lay at 0.11 ± 0.02 µM.

`O=C(O[C@H]1CO[C@H](CO)[C@@H](O)[C@@H]1O)c1cc(O)c(O)c(O)c1` [Compound 31, 1,5-Anhydro-2-O-(3′,4′,5′-trihydroxybenzoyl)-D-glucitol]: in experiment [1], the response was half-maximal at 19.4 ± 1.02 µM (EC50) and the “Antioxidant Trolox-eq (TE)” value turned out to be 2.04 ± 0.08. Besides, in experiment [2], the IC50 came to 95.1 ± 0.22 µM.

In the case of `O=C(O[C@H]1[C@H](O)[C@@H](CO)OC[C@@H]1O)c1cc(O)c(O)c(O)c1` [Compound 32, 1,5-Anhydro-3-O-(3′,4′,5′-trihydroxybenzoyl)-D-glucitol], in experiment [1], the EC50 was found to be 20.5 ± 2.05 µM and the “Antioxidant Trolox-eq (TE)” value is listed as 2.38 ± 0.24. Moreover, in experiment [2], the IC50 worked out at 138 ± 1.5 µM.

As to `O=C(O[C@H]1[C@H](O)[C@@H](O)CO[C@@H]1CO)c1cc(O)c(O)c(O)c1` [Compound 33, 1,5-Anhydro-4-O-(3′,4′,5′-trihydroxybenzoyl)-D-glucitol], in experiment [1], it took 20.8 ± 1.54 µM to reach a half-maximal effect (EC50) and the “Antioxidant Trolox-eq (TE)” value worked out at 2.09 ± 0.19. The same molecule registered an IC50 in experiment [2] of 143.9 ± 0.52 µM.

Consider `O=C(OC[C@H]1OC[C@H](O)[C@@H](O)[C@@H]1O)c1cc(O)c(O)c(O)c1` [Compound 34, 1,5-Anhydro-6-O-(3′,4′,5′-trihydroxybenzoyl)-D-glucitol], for which, in experiment [1], the EC50 came out at 22.9 ± 1.61 µM and the “Antioxidant Trolox-eq (TE)” value came to 2.13 ± 0.12. For the same molecule, in experiment [2], the IC50 was 127.1 ± 0.88 µM.

In the case of `O=C(O[C@H]1[C@H](O)[C@@H](CO)OC[C@@H]1OC(=O)c1cc(O)c(O)c(O)c1)c1cc(O)c(O)c(O)c1` [Compound 35, 1,5-Anhydro-2,3-bis-O-(3′,4′,5′-trihydroxybenzoyl)-D-glucitol], in experiment [1], the EC50 was determined as 11.3 ± 0.98 µM and the “Antioxidant Trolox-eq (TE)” value is reported as 4.29 ± 0.23. The molecule also displayed an IC50 in experiment [2] of 20.5 ± 0.5 µM. The “α-glucosidase inhibitory activity relative to gallic acid” value in experiment [2] (relative to gallic acid) is “three-times higher”.

In the case of `O=C(O[C@H]1[C@H](O)[C@@H](OC(=O)c2cc(O)c(O)c(O)c2)CO[C@@H]1CO)c1cc(O)c(O)c(O)c1` [Compound 36, 1,5-Anhydro-2,4-bis-O-(3′,4′,5′-trihydroxybenzoyl)-D-glucitol], in experiment [1], the EC50 is 14.3 ± 0.29 µM and the “Antioxidant Trolox-eq (TE)” value came to 3.36 ± 0.13. In experiment [2], this molecule gave an IC50 of 48.3 ± 1.25 µM.

As to `O=C(OC[C@H]1OC[C@H](OC(=O)c2cc(O)c(O)c(O)c2)[C@@H](O)[C@@H]1O)c1cc(O)c(O)c(O)c1` [Compound 37, 1,5-Anhydro-2,6-bis-O-(3′,4′,5′-trihydroxybenzoyl)-D-glucitol], in experiment [1], the EC50 is 15.2 ± 0.53 µM and the “Antioxidant Trolox-eq (TE)” value is reported as 3.32 ± 0.37. This molecule had an IC50 in experiment [2] of 35.6 ± 2.58 µM.

Regarding `O=C(O[C@H]1[C@H](OC(=O)c2cc(O)c(O)c(O)c2)[C@@H](CO)OC[C@@H]1O)c1cc(O)c(O)c(O)c1` [Compound 38, 1,5-Anhydro-3,4-bis-O-(3′,4′,5′-trihydroxybenzoyl)-D-glucitol], in experiment [1], the EC50 is 14.8 ± 0.56 µM and the “Antioxidant Trolox-eq (TE)” value is given as 3.55 ± 0.42. The molecule further registered a 50% inhibitory concentration (IC50) in experiment [2] of 91.4 ± 6.56 µM.

In the case of `O=C(OC[C@H]1OC[C@H](O)[C@@H](OC(=O)c2cc(O)c(O)c(O)c2)[C@@H]1O)c1cc(O)c(O)c(O)c1` [Compound 39, 1,5-Anhydro-3,6-bis-O-(3′,4′,5′-trihydroxybenzoyl)-D-glucitol], in experiment [1], the EC50 was determined as 11.9 ± 0.71 µM and the “Antioxidant Trolox-eq (TE)” value is 3.67 ± 0.19. Moreover, inhibition in experiment [2] was half-maximal at 55 ± 8.84 µM (IC50).

In experiment [1], `Cc1c(C)c2c(c(C)c1O)CCC(C)(C(=O)O)O2` (stereo not shown) [Trolox, reference compound] returned an EC50 of 49.4 ± 3.87 µM.
